Patent publication US20120255051A1, “HERBICIDE TOLERANT PLANTS” (priority 2009, published 2012)
Where “and” joins values, the source holds several entries; their conditions need not be identical. Identical values can stand only once.

Test system: Brassica plants comprising mutant AHAS alleles
Assay: Field trial, pre-planting treatment (0, 10, 20, 30 g a.i./ha), two locations in Canada: ERG, EST1, EST2, PPTOX, VIG1, VIG2, VIG3 scores
Format: in vivo, Brassica napus
Settings: for vigor3 (VIG3) score, Av: Elite parent line plants
From the text: Tests were set up and conducted to asses the growth and performance of plants comprising AHAS full knock-out alleles, and to further analyze the correlation between the presence of full knockout and missense AHAS genes in Brassica plants and plant growth and herbicide tolerance of the Brassica plants in the field. To this end, the Brassica plants identified in Example 1 and 2 were backcrossed two times with an elite parent line, and subsequently selfed twice to obtain homozygous plants (BC2S2). Plants were grown as row plots in a split plot design with three replicates (main plots=herbicide treatments, subplots=genotypes) at two locations in Canada. Treatment pre-planting was carried out on the soil about two days before sowing with a dose of 0 (treatment A), 10 (treatment B), 20 (treatment C) or 30 (treatment D) g a.i./ha of thiencarbazone methyl. Herbicide tolerance was measured by scoring for different parameters. The parameter emergence (ERG) was scored at the cotyledon stage on a scale 1-9, where 1 means late emergence and 9 means early emergence. Establishment was scored 14 days after sowing (EST1) and 21 days after sowing (EST2). Scores were from 1 to 9, where 1 is the worst establishment (least plants that emerged), and 9 is the best establishment (most plants emerged). Phytotoxicity (PPTOX) was determined after establishment. Plants were evaluated on a scale of 1 to 9, where 1=completely yellowing, 5=50% of plant is yellow and 9=no yellowing. The vigor scores (see above) were determined at 1-2 leaf stage (VIG1), 7 days after VIG1 (VIG2) and 14 days after VIG1 (VIG3). The average values (Av) and standard deviations (SD) of the scores for the different parameters are represented in Table 7a-g.
Further, the contribution of the knock-out allele to herbicide tolerance conferred by the missense allele was calculated. First, the scores were corrected for a possible effect of the growth per se, independent of herbicide treatment. To this end, the scores for treatments B, C and D were divided by the scores for treatment A for the same genotype and for the same parameter (corrected herbicide tolerance scores). Next, the effect of the knock-out allele to these corrected herbicide tolerance scores obtained by the missense allele was calculated. Therefore, the corrected herbicide tolerance scores for the missense—knock-out allele combination was divided by the corrected herbicide tolerance scores for the missense allele—wild-type combination. In case the knock-out allele has no effect on herbicide tolerance conferred by the missense allele, this ratio should be 1. In case the knock-out allele positively contributes to the herbicide tolerance conferred by the missense allele, this ratio should be higher than 1. The results for the contribution of the knock-out allele to herbicide tolerance conferred by the missense allele as calculated above are shown in table 8.

[1] = AHAS1 WT/AHAS3 HETO104, 10 g a.i./ha pre-planting (B), Location A
[2] = AHAS1 WT/AHAS3 HETO104, 10 g a.i./ha pre-planting (B), Location B
[3] = AHAS1 WT/AHAS3 HETO104, 20 g a.i./ha pre-planting (C), Location A
[4] = AHAS1 WT/AHAS3 HETO104, 20 g a.i./ha pre-planting (C), Location B
[5] = AHAS1 WT/AHAS3 HETO104, 30 g a.i./ha pre-planting (D), Location A
[6] = AHAS1 WT/AHAS3 HETO104, 30 g a.i./ha pre-planting (D), Location B
[7] = AHAS1 WT/AHAS3 HETO111, 10 g a.i./ha pre-planting (B), Location A
[8] = AHAS1 WT/AHAS3 HETO111, 10 g a.i./ha pre-planting (B), Location B
[9] = AHAS1 WT/AHAS3 HETO111, 20 g a.i./ha pre-planting (C), Location A
[10] = AHAS1 WT/AHAS3 HETO111, 20 g a.i./ha pre-planting (C), Location B
[11] = AHAS1 WT/AHAS3 HETO111, 30 g a.i./ha pre-planting (D), Location A
[12] = AHAS1 WT/AHAS3 HETO111, 30 g a.i./ha pre-planting (D), Location B
[13] = AHAS1 WT/AHAS3 WT, 10 g a.i./ha pre-planting (B), Location A
[14] = AHAS1 WT/AHAS3 WT, 10 g a.i./ha pre-planting (B), Location B
[15] = AHAS1 WT/AHAS3 WT, 20 g a.i./ha pre-planting (C), Location A
[16] = AHAS1 WT/AHAS3 WT, 20 g a.i./ha pre-planting (C), Location B
[17] = AHAS1 WT/AHAS3 WT, 30 g a.i./ha pre-planting (D), Location A
[18] = AHAS1 WT/AHAS3 WT, 30 g a.i./ha pre-planting (D), Location B
[19] = Elite parent line, 10 g a.i./ha pre-planting (B), Location A
[20] = Elite parent line, 10 g a.i./ha pre-planting (B), Location B
[21] = Elite parent line, 20 g a.i./ha pre-planting (C), Location A
[22] = Elite parent line, 20 g a.i./ha pre-planting (C), Location B
[23] = Elite parent line, 30 g a.i./ha pre-planting (D), Location A
[24] = Elite parent line, 30 g a.i./ha pre-planting (D), Location B
[25] = Elite parent line, treatment B 10 g a.i./ha pre-planting, Location A
[26] = Elite parent line, treatment B 10 g a.i./ha pre-planting, Location B
[27] = Elite parent line, treatment C 20 g a.i./ha pre-planting, Location A
[28] = Elite parent line, treatment C 20 g a.i./ha pre-planting, Location B
[29] = Elite parent line, treatment D 30 g a.i./ha pre-planting, Location A
[30] = Elite parent line, treatment D 30 g a.i./ha pre-planting, Location B
[31] = Location A, treatment B 10 g a.i./ha pre-planting, ratio >1 = positive contribution

COC(=O)c1csc(C)c1S(=O)(=O)NC(=O)n1nc(OC)n(C)c1=O [thiencarbazone-methyl, methyl 4-[(4,5-dihydro-3-methoxy-4-methyl-5-oxo-1H-1,2,4-triazol-1-yl)carbonylsulfamoyl]-5-methylthiophene-3-carboxylate]
phytotoxicity (PPTOX) score, Av [1]: 1.33
vigor1 (VIG1) score, Av [1]: 1.33
vigor2 (VIG2) score, Av [1]: 1.00
establishment (EST2) score, Av [2]: 3.33
phytotoxicity (PPTOX) score, Av [2]: 1.33
vigor2 (VIG2) score, Av [2]: 1.33
establishment (EST2) score, Av [3]: 1.00
phytotoxicity (PPTOX) score, Av [3]: 1.00
vigor1 (VIG1) score, Av [3]: 1.00
vigor2 (VIG2) score, Av [3]: 1.00
establishment (EST2) score, Av [4]: 2.33
phytotoxicity (PPTOX) score, Av [4]: 1.00
vigor1 (VIG1) score, Av [4]: 1.33
vigor2 (VIG2) score, Av [4]: 1.00
establishment (EST2) score, Av [5]: 1.00
phytotoxicity (PPTOX) score, Av [5]: 1.00
vigor1 (VIG1) score, Av [5]: 1.00
vigor2 (VIG2) score, Av [5]: 1.00
establishment (EST2) score, Av [6]: 1.00
phytotoxicity (PPTOX) score, Av [6]: 1.00
vigor1 (VIG1) score, Av [6]: 1.00
vigor2 (VIG2) score, Av [6]: 1.00
establishment (EST2) score, Av [7]: 5.33 and 5.67
vigor1 (VIG1) score, Av [7]: 6.00
vigor2 (VIG2) score, Av [7]: 7.00
phytotoxicity (PPTOX) score, Av [8]: 6.00 and 6.33
vigor1 (VIG1) score, Av [8]: 6.33 and 6.00
vigor2 (VIG2) score, Av [8]: 7.00
establishment (EST2) score, Av [9]: 4.67
phytotoxicity (PPTOX) score, Av [9]: 5.00
vigor1 (VIG1) score, Av [9]: 5.00
vigor2 (VIG2) score, Av [9]: 6.33
establishment (EST2) score, Av [10]: 4.67
vigor1 (VIG1) score, Av [10]: 5.00
vigor2 (VIG2) score, Av [10]: 6.00 and 5.67
establishment (EST2) score, Av [11]: 5.00
phytotoxicity (PPTOX) score, Av [11]: 5.00
vigor1 (VIG1) score, Av [11]: 5.00
vigor2 (VIG2) score, Av [11]: 5.67 and 5.33
phytotoxicity (PPTOX) score, Av [12]: 4.00
vigor1 (VIG1) score, Av [12]: 3.67
vigor2 (VIG2) score, Av [12]: 4.33 and 5.00
establishment (EST2) score, Av [13]: 1.00 and 2.00
phytotoxicity (PPTOX) score, Av [13]: 1.00
vigor1 (VIG1) score, Av [13]: 1.00 and 1.33
vigor2 (VIG2) score, Av [13]: 1.00
establishment (EST2) score, Av [14]: 4.33 and 5.00
phytotoxicity (PPTOX) score, Av [14]: 1.33 and 1.67 and 2.33
vigor1 (VIG1) score, Av [14]: 3.00
vigor2 (VIG2) score, Av [14]: 1.67 and 2.00
establishment (EST2) score, Av [15]: 1.00
phytotoxicity (PPTOX) score, Av [15]: 1.00
vigor1 (VIG1) score, Av [15]: 1.00
vigor2 (VIG2) score, Av [15]: 1.00
establishment (EST2) score, Av [16]: 3.67 and 4.00 and 3.00
phytotoxicity (PPTOX) score, Av [16]: 1.00 and 1.33
vigor1 (VIG1) score, Av [16]: 1.33
vigor2 (VIG2) score, Av [16]: 1.33 and 1.67
establishment (EST2) score, Av [17]: 1.00
phytotoxicity (PPTOX) score, Av [17]: 1.00
vigor1 (VIG1) score, Av [17]: 1.00
vigor2 (VIG2) score, Av [17]: 1.00
establishment (EST2) score, Av [18]: 1.33 and 2.00
phytotoxicity (PPTOX) score, Av [18]: 1.00 and 2.00
vigor1 (VIG1) score, Av [18]: 1.33
vigor2 (VIG2) score, Av [18]: 1.33 and 1.00
vigor3 (VIG3) score, Av (10 g a.i./ha (treatment B) pre-planting, Location A): 1.00
vigor3 (VIG3) score, Av (10 g a.i./ha (treatment B) pre-planting, Location B): 3.67
vigor3 (VIG3) score, Av (20 g a.i./ha (treatment C) pre-planting, Location A): 1.00
vigor3 (VIG3) score, Av (20 g a.i./ha (treatment C) pre-planting, Location B): 1.00
vigor3 (VIG3) score, Av (30 g a.i./ha (treatment D) pre-planting, Location A): 1.00
vigor3 (VIG3) score, Av (30 g a.i./ha (treatment D) pre-planting, Location B): 1.00
establishment (EST2) score, Av [19]: 2.00
phytotoxicity (PPTOX) score, Av [19]: 1.00
vigor1 (VIG1) score, Av [19]: 1.00
vigor2 (VIG2) score, Av [19]: 1.00
establishment (EST2) score, Av [20]: 6.00
phytotoxicity (PPTOX) score, Av [20]: 3.67
vigor1 (VIG1) score, Av [20]: 4.00
vigor2 (VIG2) score, Av [20]: 4.00
establishment (EST2) score, Av [21]: 2.33
phytotoxicity (PPTOX) score, Av [21]: 1.00
vigor1 (VIG1) score, Av [21]: 1.33
vigor2 (VIG2) score, Av [21]: 1.00
establishment (EST2) score, Av [22]: 4.67
phytotoxicity (PPTOX) score, Av [22]: 1.67
vigor1 (VIG1) score, Av [22]: 2.00
vigor2 (VIG2) score, Av [22]: 2.00
establishment (EST2) score, Av [23]: 2.00
phytotoxicity (PPTOX) score, Av [23]: 1.00
vigor1 (VIG1) score, Av [23]: 1.00
vigor2 (VIG2) score, Av [23]: 1.00
establishment (EST2) score, Av [24]: 4.00
phytotoxicity (PPTOX) score, Av [24]: 1.00
vigor1 (VIG1) score, Av [24]: 1.33
vigor2 (VIG2) score, Av [24]: 1.00
emergence (ERG) score Av [25]: 2.00
establishment (EST1) score Av, 14 days after sowing [25]: 2.00
emergence (ERG) score Av [26]: 5.00
establishment (EST1) score Av, 14 days after sowing [26]: 6.67
emergence (ERG) score Av [27]: 2.33
establishment (EST1) score Av, 14 days after sowing [27]: 2.33
emergence (ERG) score Av [28]: 4.33
establishment (EST1) score Av, 14 days after sowing [28]: 4.67
emergence (ERG) score Av [29]: 2.00
establishment (EST1) score Av, 14 days after sowing [29]: 2.00
emergence (ERG) score Av [30]: 3.00
establishment (EST1) score Av, 14 days after sowing [30]: 4.00
relative contribution of HETO104 (AHAS3 KO) to herbicide tolerance conferred by HETO108 (AHAS1 missense): ERG [31]: 0.86
relative contribution of HETO104 (AHAS3 KO) to herbicide tolerance conferred by HETO108 (AHAS1 missense): EST1 [31]: 0.91
relative contribution of HETO104 (AHAS3 KO) to herbicide tolerance conferred by HETO108 (AHAS1 missense): EST2 [31]: 0.95
relative contribution of HETO104 (AHAS3 KO) to herbicide tolerance conferred by HETO108 (AHAS1 missense): PPTOX [31]: 0.83
relative contribution of HETO104 (AHAS3 KO) to herbicide tolerance conferred by HETO108 (AHAS1 missense): VIG1 [31]: 0.90
relative contribution of HETO104 (AHAS3 KO) to herbicide tolerance conferred by HETO108 (AHAS1 missense): VIG2 [31]: 0.88
relative contribution of HETO104 (AHAS3 KO) to herbicide tolerance conferred by HETO108 (AHAS1 missense): VIG3 [31]: 0.96
relative contribution of HETO112 (AHAS1 KO) to herbicide tolerance conferred by HETO111 (AHAS3 missense): ERG [31]: 0.85
relative contribution of HETO112 (AHAS1 KO) to herbicide tolerance conferred by HETO111 (AHAS3 missense): EST1 [31]: 0.92
relative contribution of HETO112 (AHAS1 KO) to herbicide tolerance conferred by HETO111 (AHAS3 missense): EST2 [31]: 1.04
relative contribution of HETO112 (AHAS1 KO) to herbicide tolerance conferred by HETO111 (AHAS3 missense): PPTOX [31]: 1.06
relative contribution of HETO112 (AHAS1 KO) to herbicide tolerance conferred by HETO111 (AHAS3 missense): VIG1 [31]: 1.10
